The compounds below were run against T1, BTK (Homo sapiens, UniProt Q06187) (assay: BTK degradation activity test in Mino cells (Westernblot or Elisa)). Settings: 24-72 h incubation.
T1 construct: endogenous in cells; host or cells: Mino cells
Type: cell-based
Procedure: The Mino cell line cells are 0.5˜1 million/well in 6-well plates. The compounds are diluted to different concentrations, added to the plate, and after 24-72 h of incubation, the cells are collected. After the cells were lysed, the total protein concentration in each well was determined with a BCA kit. The amount of BTK is determined using the Westernblot or Elisa method.

T1 sequence (Q06187 whole entry): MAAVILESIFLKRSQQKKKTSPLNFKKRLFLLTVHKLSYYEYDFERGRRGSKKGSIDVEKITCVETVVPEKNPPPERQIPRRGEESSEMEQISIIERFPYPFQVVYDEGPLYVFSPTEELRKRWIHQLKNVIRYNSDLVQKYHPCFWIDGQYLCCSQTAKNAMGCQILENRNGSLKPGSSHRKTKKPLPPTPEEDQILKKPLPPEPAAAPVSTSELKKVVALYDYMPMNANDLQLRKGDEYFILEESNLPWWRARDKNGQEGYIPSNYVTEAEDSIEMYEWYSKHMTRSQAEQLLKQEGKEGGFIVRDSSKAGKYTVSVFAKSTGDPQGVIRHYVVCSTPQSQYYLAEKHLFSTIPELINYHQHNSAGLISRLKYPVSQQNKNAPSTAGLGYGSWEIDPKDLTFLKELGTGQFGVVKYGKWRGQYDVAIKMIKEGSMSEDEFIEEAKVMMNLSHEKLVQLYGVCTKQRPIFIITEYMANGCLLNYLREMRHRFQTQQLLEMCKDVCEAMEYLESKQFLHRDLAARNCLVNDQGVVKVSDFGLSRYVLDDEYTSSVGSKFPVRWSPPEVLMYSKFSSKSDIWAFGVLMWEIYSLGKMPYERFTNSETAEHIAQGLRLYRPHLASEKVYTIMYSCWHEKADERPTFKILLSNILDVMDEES

Row | Compound | DC50 [µM]
1 | NC(=O)c1cnc(N2CCCCC2)cc1Nc1ccc(N2CCN(CC3CCN(c4ccc5c(c4)C(=O)N(C4CCC(=O)NC4=O)C5=O)C3)CC2)c(F)c1 (stereo not shown) [Compound 037, 4-((4-(4-((1-(2-(2,6-dioxopiperidin-3-yl)-1,3-dioxoisoindolin-5-yl)pyrrolidin-3-yl)methyl)piperazin-1-yl)-3-fluorophenyl)amino)-6-(piperidin-1-yl) nicotinamide] | < 0.01
2 | CN1CCN(c2nnc(C(N)=O)c(Nc3ccc(N4CCC(CN5CCN(c6ccc(N7CCC(=O)NC7=O)cc6)CC5)CC4)nc3)n2)CC1 [Compound 047, 5-((6-(4-((4-(4-(2,4-dioxotetrahydropyrimidin-1(2H)-yl)phenyl)piperazin-1-yl)methyl)piperidin-1-yl)pyridin-3-yl)amino)-3-(4-methylpiperazin-1-yl)-1,2,4-triazine-6-carboxamide] | < 0.01
3 | NC(=O)c1nnc(N2CCCCC2)nc1Nc1ccc(N2CC(CN3CCN(c4ccc5c(c4)C(=O)N(C4CCC(=O)NC4=O)C5=O)CC3)C2)cc1 (stereo not shown) [Compound 049, 5-((4-(3-((4-(2-(2,6-dioxopiperidin-3-yl)-1,3-dioxoisoindolin-5-yl)piperazin-1-yl)methyl)azetidin-1-yl)phenyl)amino)-3-(piperidin-1-yl)-1,2,4-triazine-6-carboxamide] | < 0.01
4 | CN1CCN(c2nnc(C(N)=O)c(Nc3ccc(N4CCC(CN5CCN(c6ccc(N7CCC(=O)NC7=O)cc6)CC5)CC4)c(F)c3)n2)CC1 [Compound 054, 5-((4-(4-((4-(4-(2,4-dioxotetrahydropyrimidin-1(2H)-yl)phenyl)piperazin-1-yl)methyl)piperidin-1-yl)-3-fluorophenyl)amino)-3-(4-methylpiperazin-1-yl)-1,2,4-triazine-6-carboxamide] | < 0.01
5 | NC(=O)c1nnc(N2CCCCC2)nc1Nc1ccc(N2CCN(C(=O)C3CCN(c4ccc5c(c4)C(=O)N(C4CCC(=O)NC4=O)C5=O)C3)CC2)cc1 (stereo not shown) [Compound 056, 5-((4-(4-(1-(2-(2,6-dioxopiperidin-3-yl)-1,3-dioxoisoindolin-5-yl)pyrrolidine-3-carbonyl)piperazin-1-yl)phenyl)amino)-3-(piperidin-1-yl)-1,2,4-triazine-6-carboxamide] | < 0.01
6 | NC(=O)c1nnc(N2CCCCC2)nc1Nc1ccc(C2CCN(C(=O)C3CCN(c4ccc5c(c4)C(=O)N(C4CCC(=O)NC4=O)C5=O)CC3)CC2)cc1 (stereo not shown) [Compound 057, 5-((4-(1-(1-(2-(2,6-dioxopiperidin-3-yl)-1,3-dioxoisoindolin-5-yl)piperidine-4-carbonyl)piperidin-4-yl)phenyl)amino)-3-(piperidin-1-yl)-1,2,4-triazine-6-carboxamide] | < 0.01
7 | NC(=O)c1nnc(N2CCCCC2)nc1Nc1ccc(N2CCN(C(=O)C3CCN(c4ccc5c(c4)C(=O)N(C4CCC(=O)NC4=O)C5=O)CC3)CC2)cc1 (stereo not shown) [Compound 058, 5-((4-(4-(1-(2-(2,6-dioxopiperidin-3-yl)-1,3-dioxoisoindolin-5-yl)piperidine-4-carbonyl)piperazin-1-yl)phenyl)amino)-3-(piperidin-1-yl)-1,2,4-triazine-6-carboxamide] | < 0.01
8 | NC(=O)c1nnc(N2CCCCC2)nc1Nc1ccc(N2CCC(C(=O)N3CCN(c4ccc5c(c4)C(=O)N(C4CCC(=O)NC4=O)C5=O)CC3)CC2)cc1 (stereo not shown) [Compound 060, 5-((4-(4-(4-(2-(2,6-dioxopiperidin-3-yl)-1,3-dioxoisoindolin-5-yl)piperazine-1-carbonyl)piperidin-1-yl)phenyl)amino)-3-(piperidin-1-yl)-1,2,4-triazine-6-carboxamide] | < 0.01
9 | NC(=O)c1nnc(N2CCCCC2)nc1Nc1ccc(N2CCN(C(=O)C3CN(c4ccc5c(c4)C(=O)N(C4CCC(=O)NC4=O)C5=O)C3)CC2)cc1 (stereo not shown) [Compound 061, 5-((4-(4-(1-(2-(2,6-dioxopiperidin-3-yl)-1,3-dioxoisoindolin-5-yl)azetidine-3-carbonyl)piperazin-1-yl)phenyl)amino)-3-(piperidin-1-yl)-1,2,4-triazine-6-carboxamide] | < 0.01

Next, values leading:

Row | DC50 [µM] | Compound
10 | < 0.01 | NC(=O)c1cnc(N2CCCCC2)cc1Nc1ccc(C2CCN(CC3CCN(c4ccc5c(c4)C(=O)N(C4CCC(=O)NC4=O)C5=O)C3)CC2)cc1 (stereo not shown) [Compound 038, 4-((4-(1-((1-(2-(2,6-dioxopiperidin-3-yl)-1,3-dioxoisoindolin-5-yl)pyrrolidin-3-yl)methyl)piperidin-4-yl)phenyl)amino)-6-(piperidin-1-yl) nicotinamide]
11 | < 0.01 | Cc1nc(C(N)=O)c(Nc2ccc(C3CCN(CC4CCN(c5ccc6c(c5)C(=O)N(C5CCC(=O)NC5=O)C6=O)C4)CC3)cc2)nc1N1CCCCC1 (stereo not shown) [Compound 039, 3-((4-(1-((1-(2-(2,6-dioxopiperidin-3-yl)-1,3-dioxoisoindolin-5-yl)pyrrolidin-3-yl)methyl)piperidin-4-yl)phenyl)amino)-6-methyl-5-(piperidin-1-yl) pyrazine-2-carboxamide]
12 | < 0.01 | NC(=O)c1nnc(N2CCCCC2)cc1Nc1ccc(C2CCN(CC3CCN(c4ccc5c(c4)C(=O)N(C4CCC(=O)NC4=O)C5=O)C3)CC2)cc1 (stereo not shown) [Compound 040, 4-((4-(1-((1-(2-(2,6-dioxopiperidin-3-yl)-1,3-dioxoisoindolin-5-yl)pyrrolidin-3-yl)methyl)piperidin-4-yl)phenyl)amino)-6-(piperidin-1-yl) pyridazine-3-carboxamide]
13 | < 0.01 | NC(=O)c1nnc(N2CCC[C@@H](O)C2)cc1Nc1ccc(C2CCN(CC3CCN(c4ccc5c(c4)C(=O)N(C4CCC(=O)NC4=O)C5=O)C3)CC2)cc1 (stereo partly drawn) [Compound 041, 4-((4-(1-((1-(2-(2,6-dioxopiperidin-3-yl)-1,3-dioxoisoindolin-5-yl)pyrrolidin-3-yl)methyl)piperidin-4-yl)phenyl)amino)-6-((R)-3-hydroxypiperidin-1-yl) pyridazine-3-carboxamide]
14 | < 0.01 | NC(=O)c1nc(F)c(N2CCCCC2)nc1Nc1ccc(C2CCN(CC3CCN(c4ccc5c(c4)C(=O)N(C4CCC(=O)NC4=O)C5=O)C3)CC2)cc1 (stereo not shown) [Compound 042, 3-((4-(1-((1-(2-(2,6-dioxopiperidin-3-yl)-1,3-dioxoisoindolin-5-yl)pyrrolidin-3-yl)methyl)piperidin-4-yl)phenyl)amino)-6-fluoro-5-(piperidin-1-yl) pyrazine-2-carboxamide]
15 | < 0.01 | COc1nc(C(N)=O)c(Nc2ccc(C3CCN(CC4CCN(c5ccc6c(c5)C(=O)N(C5CCC(=O)NC5=O)C6=O)C4)CC3)cc2)nc1N1CCCCC1 (stereo not shown) [Compound 043, 3-((4-(1-((1-(2-(2,6-dioxopiperidin-3-yl)-1,3-dioxoisoindolin-5-yl)pyrrolidin-3-yl)methyl)piperidin-4-yl)phenyl)amino)-6-methoxy-5-(piperidin-1-yl) pyrazine-2-carboxamide]
16 | < 0.01 | NC(=O)c1nnc(N2CCCCC2)nc1Nc1ccc(C2CCN(C(=O)C3CCN(c4ccc5c(c4)C(=O)N(C4CCC(=O)NC4=O)C5=O)C3)CC2)cc1 (stereo not shown) [Compound 055, 5-((4-(1-(1-(2-(2,6-dioxopiperidin-3-yl)-1,3-dioxoisoindolin-5-yl)pyrrolidine-3-carbonyl)piperidin-4-yl)phenyl)amino)-3-(piperidin-1-yl)-1,2,4-triazine-6-carboxamide]
